Data set [1] concerns the target T1, factor Xa (Bos taurus, UniProt P00743). The experiment in a line: Kinetic measurements (Michaelis-Menten) of factor Xa substrates. The format is biochemical. As for the experimental part:
(§1) Commercial substrate 1a, depicted in FIG. 2, was used as reference in the kinetic measurements. The kinetic values KM, kcat and kcat/KM were established for the fluorogenic compound 1 using Human Thrombin. In order to compare the results of 1 and 1a, the absorption of the released chromophores was measured during the enzymatic reaction (570 nm for resorufin and 380 nm for p-nitroaniline).
(§2) The same parameters were also determined for 1 by measuring the emission of resorufin at 583 nm and similar values to the ones obtained from absorption were found (FIG. 5A).
A similar conjugate, with the same peptide sequence, but having p-nitroanilide as reporter, has a much higher KM (40 μM) and the enzyme has poorer catalytic efficiency for this substrate (2.7×10^6 M^−1 s^−1). Thus, compound 2 of the present invention performs better than the best factor Xa substrate so far reported.
The kinetic parameters were determined as described for the other substrates (cf. Example 4). The results of Michaelis-Menten kinetic is depicted in FIG. 13.

The conditions of data set [2]: cited from earlier work.
For data set [3], the target named is T2, thrombin (Homo sapiens, UniProt P00734). The experiment in a line: Fluorescence assay to evaluate specificity of compound 1 toward thrombin. The class given is biochemical. As to conditions: Compound 1 5 μM, proteases 100 pM. As to the method: (§3) The enzymatic reactions were carried out in 50 mM Tris buffer pH 8.3 and 130 mM NaCl.
(§4) the specificity of Compound 1 of the present invention toward thrombin was tested. Compound 1 (5 μM) was incubated in the presence of thrombin (100 pM) and some possible interfering proteases and proteins, like trypsin, factor Xa, myoglobin, cytochrome C and BSA (100 pM). The increase of fluorescence in response to factor Xa, myoglobin, cytochrome C and BSA was negligible (FIG. 6). […] A commercial assay can detect 1 pM thrombin, by fishing it out of plasma samples using microwells coated with DNA-aptamer. The AMC-based substrate is converted by thrombin to fluorescent product after the enrichment step. The fluorescence assay according to the present invention allowed the detection of thrombin at the concentrations as low as 0.5 pM in water solution (FIG. 7), which was achieved without any enrichment step.

The next data set relates to trypsin. Nature of the data set: Fluorescence specificity assay, trypsin. The format is biochemical. As to conditions: Compound 1 5 μM, trypsin 100 pM. As for the experimental part: as §3, §4
Data set [4] addresses T1, factor Xa. The experiment in a line: Fluorescence specificity assay, factor Xa. The following applies: Compound 1 5 μM, factor Xa 100 pM. The format is biochemical. As to the method: as §3, §4
For the next data set, the target named is T3, myoglobin (Homo sapiens, UniProt P02144).
T3 sequence (P02144 1-154): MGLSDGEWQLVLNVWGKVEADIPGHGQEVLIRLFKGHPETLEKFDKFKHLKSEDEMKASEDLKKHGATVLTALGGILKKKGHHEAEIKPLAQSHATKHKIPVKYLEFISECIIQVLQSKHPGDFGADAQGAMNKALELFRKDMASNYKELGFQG
Nature of the data set: Fluorescence specificity assay, myoglobin. The class given is biochemical. The following applies: Compound 1 5 μM, myoglobin 100 pM. As for the experimental part: as §3, §4

Another data set addresses cytochrome C (Homo sapiens, UniProt P99999). Nature of the data set: Fluorescence specificity assay, cytochrome C. The format is biochemical. As to conditions: Compound 1 5 μM, cytochrome C 100 pM. As for the experimental part: as §3, §4
A further data set concerns the target BSA (Bos taurus, UniProt P02769). The experiment in a line: Fluorescence specificity assay, BSA. The class given is biochemical. As to conditions: Compound 1 5 μM, BSA 100 pM. As to the method: as §3, §4
Data set [5] concerns the target T2, thrombin. The experiment in a line: Fluorescence assay for determination of thrombin in water (LOD). The format is biochemical. As to conditions: in water solution, without enrichment step. As to the method: The mean change of resorufin fluorescence dF/min is plotted versus the corresponding thrombin concentration (in pM).
as §4

Data set [6] in a line: Stability toward spontaneous hydrolysis in thrombin buffer. The class given is physicochemical. The following applies: incubation with thrombin buffer (Tris pH 8.3), 24° C. As for the experimental part:
A. Absorption spectra of resorufin and compound 1 of the present invention; B. Enzymatic hydrolysis of 1 (5 μM) in the presence of thrombin (100 pM) with Tris buffer pH 8.3 (λex=570 nm; λem=583 nm) at 24° C.; inset: full emission spectra recorded after 60 min, with and without enzyme; C.
The photophysical properties of compound 1 of the present invention, as well as its enzymatic conversion to fluorescent product resorufin were investigated. […] It also has a negligible emission, if exited either at its maxima (480 nm) or at resorufin maxima (570 nm).

Data set [7] addresses T2, thrombin. The experiment in a line: Kinetic measurements with Human Thrombin. The format is biochemical. As to conditions: absorption of released chromophore, 570 nm. As for the experimental part:
as §1, §2

The mark [8] stands for this setting: factor Xa substrate, Michaelis-Menten kinetic.

T1 sequence (P00743 234-492 limits assumed): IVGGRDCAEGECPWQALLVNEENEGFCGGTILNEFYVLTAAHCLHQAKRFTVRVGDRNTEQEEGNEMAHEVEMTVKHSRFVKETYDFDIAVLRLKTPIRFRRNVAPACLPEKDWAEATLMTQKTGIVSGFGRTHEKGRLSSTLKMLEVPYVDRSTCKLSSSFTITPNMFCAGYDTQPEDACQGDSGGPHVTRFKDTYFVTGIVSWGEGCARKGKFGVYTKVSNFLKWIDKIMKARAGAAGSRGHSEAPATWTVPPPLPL
T1 sequence (P00743 41-180 partner limits assumed): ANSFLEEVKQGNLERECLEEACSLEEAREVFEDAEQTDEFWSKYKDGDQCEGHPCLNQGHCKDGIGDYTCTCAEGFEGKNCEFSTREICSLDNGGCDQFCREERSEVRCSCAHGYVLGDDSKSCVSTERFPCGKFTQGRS
Sequence of BSA (P02769 25-607): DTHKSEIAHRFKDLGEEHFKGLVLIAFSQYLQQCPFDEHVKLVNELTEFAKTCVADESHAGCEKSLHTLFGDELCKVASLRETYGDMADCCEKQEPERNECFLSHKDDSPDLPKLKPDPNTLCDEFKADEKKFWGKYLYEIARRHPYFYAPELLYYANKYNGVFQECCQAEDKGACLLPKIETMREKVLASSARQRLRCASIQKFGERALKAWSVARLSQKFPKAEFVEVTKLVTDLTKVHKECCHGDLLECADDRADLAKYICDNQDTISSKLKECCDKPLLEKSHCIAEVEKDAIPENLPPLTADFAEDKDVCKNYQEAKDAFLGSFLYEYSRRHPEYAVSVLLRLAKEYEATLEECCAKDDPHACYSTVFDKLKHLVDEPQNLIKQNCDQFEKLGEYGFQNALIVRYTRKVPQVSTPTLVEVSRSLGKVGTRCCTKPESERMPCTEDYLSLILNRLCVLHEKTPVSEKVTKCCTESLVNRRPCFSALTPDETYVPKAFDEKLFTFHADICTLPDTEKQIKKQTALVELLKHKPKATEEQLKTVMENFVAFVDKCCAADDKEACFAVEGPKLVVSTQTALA
Sequence of cytochrome C (P99999 whole entry, species assumed): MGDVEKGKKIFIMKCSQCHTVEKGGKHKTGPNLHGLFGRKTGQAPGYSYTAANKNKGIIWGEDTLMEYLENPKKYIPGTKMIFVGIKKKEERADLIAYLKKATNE

For “Cbz-D-Arg-Gly-Arg-PABA-Res [Compound 2a]”, on factor Xa [1] (setting [8]), the Km is 5.5 µM and the kcat stood at 4.9 s⁻¹.

On to `O=c1ccc2nc3ccc(O)cc3oc-2c1` [resorufin, 7-Hydroxy-3H-phenoxazin-3-one], for which the pKa in data set [2] was about 6.0.

In the case of D-Phe-Pro-Arg-PABA-Res [Compound 1], the “specificity for thrombin compared to factor Xa” value at thrombin [3] came to 400 times. Besides, the “selectivity for thrombin over trypsin” value on thrombin [3] (50 mM Tris pH 8.3, 130 mM NaCl) amounted to 7.5 fold. Also, the “hydrolysis by trypsin (rate compared to thrombin)” value with trypsin is reported as “slower rate compared to thrombin”. The “increase of fluorescence in response to factor Xa” value on factor Xa [4] is on record as “negligible”. Besides, the “increase of fluorescence in response to myoglobin” value at myoglobin is “negligible”. Also, the “increase of fluorescence in response to cytochrome C” value at cytochrome C is “negligible”. At BSA, the “increase of fluorescence in response to BSA” value is recorded as “negligible”. The “lowest detectable thrombin concentration” value at thrombin [5] turned out to be 0.5 pM. In addition, in data set [6], the “spontaneous hydrolysis / chemical stability” value is recorded as “no spontaneous hydrolysis”. Also, the “thrombin turnover compared with commercial substrate 1a” value at thrombin [7] was “did not suffer at all”.

“BzIs-D-Arg-Gly-Arg-PABA-Res [Compound 2]”: on factor Xa [1] (FIG. 5B), the “KM value (in words)” value is recorded as “very low KM value”, the “catalytic efficiency (in words)” value is on record as “excellent catalytic efficiency” and the “turnover number kcat (in words)” value is recorded as “relatively good turnover number”.

Usually Km stands for the concentration of substrate that gives half-maximal velocity. The term kcat denotes the number of substrate molecules converted per active site and unit of time at saturation. In general, pKa refers to the pH at which an ionisable group is half protonated.
